Source: ChEMBL document CHEMBL1145701, “Spinonin, a novel glycoside from Ononis spinosa subsp. leiosperma” (1997)
Converted amounts (≈) assume the structure as drawn. The source made the active and inactive calls. The calls are words filed in the database; no cut-off is given here.

What was measured:
Streptococcus = assay: Antimicrobial activity against beta-hemolytic Streptococcus isolate 48 by paper-disk diffusion method; type: functional
Pseudomonas aeruginosa = assay: Antimicrobial activity against Pseudomonas aeruginosa ATCC 9027 by paper-disk diffusion method; type: functional
BC1 = assay: Cytotoxicity against human BC1 cells; type: functional, cell-based
Lu1 = assay: Cytotoxicity against human Lu1 cells; type: functional, cell-based
KBVIN = assay: Cytotoxicity against human KBVIN cells in presence of vinblastine; type: functional, cell-based
SK-N-SH = assay: Cytotoxicity against human SK-N-SH cells […]; type: functional, cell-based
[1] = target: Human immunodeficiency virus type 1 reverse transcriptase (Human immunodeficiency virus 1) (UniProt Q72547); assay: Inhibition of HIV1 reverse transcriptase

Row | SMILES | MIC (Streptococcus) | MIC (Pseudomonas aeruginosa) | Activity (BC1) | Activity (Lu1) | Activity (KBVIN) | Activity (SK-N-SH) | Activity [1]
1 | COc1ccc(-c2coc3cc(O[C@@H]4O[C@H](CO)[C@@H](O)[C@H](O)[C@H]4O)ccc3c2=O)cc1 [ONONIN] | 25 µg/mL (≈ 58.1 µM) | – | – | – | – | – | –
2 | COc1ccc2c(c1)O[C@H]1c3ccc(O[C@@H]4O[C@H](CO)[C@@H](O)[C@H](O)[C@H]4O)cc3OC[C@@H]21 | – | 200 µg/mL (≈ 463 µM) | – | – | – | – | –
3 | O=C1C=C(c2ccc(O)cc2O[C@@H]2O[C@H](CO)[C@@H](O)[C@H](O)[C@H]2O)O[C@@H]1Cc1ccc(O)cc1 [SPINONIN] | – | 200 µg/mL (≈ 434 µM) | inactive | inactive | inactive | inactive | inactive
